Results taken from PMC8869358, “High-Throughput Chemical Screening and Structure-Based Models to Predict hERG Inhibition” (Biology, 2022).
Structures can show the parent of a compound that is named as a salt.

Target: hERG (Homo sapiens, UniProt Q12809)
Experiment: cell-based
Conditions: (-LOG10(IC50), µM)

hERG, sequence (Q12809 whole entry): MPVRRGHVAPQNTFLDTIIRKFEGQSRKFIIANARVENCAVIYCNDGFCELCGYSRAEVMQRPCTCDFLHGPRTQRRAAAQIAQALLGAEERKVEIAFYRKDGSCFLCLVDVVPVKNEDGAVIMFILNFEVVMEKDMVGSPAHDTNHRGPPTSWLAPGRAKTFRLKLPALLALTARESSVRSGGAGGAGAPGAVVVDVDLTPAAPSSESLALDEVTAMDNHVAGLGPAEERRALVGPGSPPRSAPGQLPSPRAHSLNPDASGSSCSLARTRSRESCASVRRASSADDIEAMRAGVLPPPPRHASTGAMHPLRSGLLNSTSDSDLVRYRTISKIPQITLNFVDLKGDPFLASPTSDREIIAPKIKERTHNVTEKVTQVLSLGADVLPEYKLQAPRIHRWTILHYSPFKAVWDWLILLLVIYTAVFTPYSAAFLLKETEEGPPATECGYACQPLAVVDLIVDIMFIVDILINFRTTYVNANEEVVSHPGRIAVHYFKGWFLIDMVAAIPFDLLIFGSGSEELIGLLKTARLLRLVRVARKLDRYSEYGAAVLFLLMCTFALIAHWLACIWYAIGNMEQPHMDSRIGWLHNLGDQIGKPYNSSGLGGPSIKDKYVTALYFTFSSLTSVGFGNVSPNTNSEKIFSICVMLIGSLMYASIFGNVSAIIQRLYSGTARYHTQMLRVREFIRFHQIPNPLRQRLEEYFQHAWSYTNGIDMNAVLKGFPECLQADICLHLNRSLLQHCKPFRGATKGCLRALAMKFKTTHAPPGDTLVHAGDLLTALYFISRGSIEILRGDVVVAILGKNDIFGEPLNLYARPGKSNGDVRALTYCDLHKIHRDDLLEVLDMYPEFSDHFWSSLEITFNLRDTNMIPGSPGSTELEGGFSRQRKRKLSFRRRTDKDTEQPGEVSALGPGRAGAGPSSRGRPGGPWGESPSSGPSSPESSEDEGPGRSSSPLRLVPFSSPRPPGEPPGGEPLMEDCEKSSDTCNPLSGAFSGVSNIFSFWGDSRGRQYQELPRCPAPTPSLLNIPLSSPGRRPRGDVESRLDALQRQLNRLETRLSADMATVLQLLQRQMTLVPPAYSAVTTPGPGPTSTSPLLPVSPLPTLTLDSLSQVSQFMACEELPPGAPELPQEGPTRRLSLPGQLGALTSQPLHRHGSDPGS

Row | Compound | IC50 [µM]
1 | O=C(Nc1ccccc1)OCC(CN1CCCCC1)OC(=O)Nc1ccccc1 (stereo not shown) [Diperodon hydrochloride] | 6.01
2 | CN1CCN(C2=Nc3ccccc3Oc3ccc(Cl)cc32)CC1 [Loxapine succinate] | 12
3 | CC/C=C\CCOC(=O)c1ccccc1O [(3Z)-Hex-3-en-1-yl salicylate] | 34.7
4 | CC(C)(Cc1c[nH]c2ccccc12)NCC(O)COc1ccccc1C#N (stereo not shown) [Bucindolol] | 8.49
5 | CCCCCCCCCCCCn1cc[n+](C)c1 [1-Dodecyl-3-methylimidazolium hexafluorophosphate] | 4.2
6 | O=C(Oc1ccccc1)c1cccc(C(=O)Oc2ccccc2)c1 [Diphenyl isophthalate] | 25
7 | CO[C@]12C[C@@H](COC(=O)c3cncc(Br)c3)CN(C)[C@@H]1Cc1cn(C)c3cccc2c13 [Nicergoline] | 1.45
8 | Oc1ccc(C(c2ccc(O)cc2)(C(F)(F)F)C(F)(F)F)cc1 [Bisphenol AF] | 43.4
9 | NC(=O)c1nc(-c2cccc(-c3cc(F)ccc3OCC(F)(F)C(F)(F)F)c2)n[nH]1 [Potassium 5-carbamoyl-3-[5'-fluoro-2'-(2,2,3,3,3-pentafluoropropoxy)-3-biphenylyl]-1,2,4-triazol-1-ide hydrate (1:1:1)] | 47.1
10 | CCN(CC)Cc1nccn1-c1ccc([N+](=O)[O-])cc1C(=O)c1ccccc1Cl [Nizofenone fumarate] | 6.74
11 | CC[N+](CC)(CC)CCOC(=O)C(C1CCCC1)C1CCCC1 [Diponium bromide] | 9.52
12 | Nc1ccc(C(=O)OCCCOC(=O)c2ccc(N)cc2)cc1 [1,3-Propanediol, bis(4-aminobenzoate)] | 12.3
13 | CCCOC(C(=O)OC1CCN(C)CC1)(c1ccccc1)c1ccccc1 [Propiverine hydrochloride] | 14.2
14 | O=C1[C@H]2CCCC[C@H]2C(=O)N1CCCCN1CCN(c2nsc3ccccc23)CC1 [Perospirone hydrochloride] | 8.49
15 | CCCCc1cc2ccccc2c(OCCN(C)C)n1 [Dimethisoquin hydrochloride] | 3.65
16 | CSc1ccc(Oc2ccc(S(N)(=O)=O)cc2CN(C)C)cc1C [UK-416244] | 8.71
17 | CCOCCn1c(C2CCN(CCc3ccc(C(C)(C)C(=O)O)cc3)CC2)nc2ccccc21 [Bilastine] | 10.1
18 | Clc1ccccc1-c1ccccc1Cl [2,2'-Dichlorobiphenyl] | 17.6
19 | Cc1cc(O)c2ccccc2c1O [Menadiol] | 2.68
20 | CC(C)(C)CC(C)(C)c1ccc(O)cc1 [4-(1,1,3,3-Tetramethylbutyl)phenol] | 21.3
21 | CC(NCCC(c1ccccc1)c1ccccc1)c1ccccc1 (stereo not shown) [Fendiline hydrochloride] | 1.69
22 | CC(C)(C)c1cc([N+](=O)[O-])cc(C(C)(C)C)c1O [2,6-Di-tert-butyl-4-nitrophenol] | 38.9
23 | CNC(=O)c1cc(Oc2ccc(NC(=O)Nc3ccc(Cl)c(C(F)(F)F)c3)cc2)ccn1 [Sorafenib tosylate] | 22.1
24 | COc1ccc(-c2cc(C(F)F)nn2-c2ccc(S(N)(=O)=O)cc2)cc1F [Deracoxib] | 23.9
25 | CCCCCCCCCCCCn1cc[n+](C)c1 [1-Dodecyl-3-methylimidazolium tetrafluoroborate] | 4.04
26 | CCCN(CC)CC1COC2(CCC(C(C)(C)C)CC2)O1 (stereo not shown) [Spiroxamine] | 34.7
27 | CCc1cc(Cl)c(OC)c(C(=O)NC[C@@H]2CCCN2CC)c1O [Eticlopride hydrochloride] | 7.56
28 | CC(C)OC(=O)C(O)(c1ccc(Cl)cc1)c1ccc(Cl)cc1 [Chloropropylate] | 22.7

Row | Compound | IC50 [µM]
29 | C=CC(C)(CCC=C(C)C)OC(=O)c1ccccc1 (stereo not shown) [Linalyl benzoate] | 20.3
30 | CCCC(C(=O)OCCN(CC)CC)(c1ccccc1)c1ccccc1 [Proadifen hydrochloride] | 7.28
31 | CCCC[P+](CCCC)(CCCC)CCCC [Tetrabutylphosphonium chloride] | 23.2
32 | CCCCCCCCCCOCC(O)CN (stereo not shown) [Decominol hydrochloride] | 20.5
33 | CC(Cc1ccccc1)NCCCCl (stereo not shown) [Mefenorex] | 16.3
34 | CCC(CN)=C(c1ccccc1)c1ccccc1 [Etifelmine hydrochloride] | 20.5
35 | CCCCCCCC(=O)Oc1c(Br)cc(C#N)cc1Br [Bromoxynil octanoate] | 26.4
36 | CCCCCCC(C)Nc1ccc(Nc2ccccc2)cc1 (stereo not shown) [N-(1-Methylheptyl)-N'-phenyl-1,4-benzenediamine] | 34.7
37 | CCCCCOc1ccccc1/C(=C\SC)n1ccnc1 [Neticonazole] | 20.5
38 | CCCOc1ccc(S(=O)(=O)N2CCN(CC)CC2)cc1-c1nc2c(CC)n(Cc3ccccn3)nc2c(=O)[nH]1 [UK-343664] | 21.9
39 | CC(C)(C)NC(=O)[C@@H]1C[C@@H]2CCCC[C@@H]2CN1C[C@@H](O)[C@H](Cc1ccccc1)NC(=O)[C@H](CC(N)=O)NC(=O)c1ccc2ccccc2n1 [Saquinavir mesylate] | 22.2
40 | CCCCCCCC[n+]1ccn(C)c1 [1-Methyl-3-octylimidazolium chloride] | 19.4
41 | CCCN(CCC)C(=O)C(CCC(=O)OCCCN1CCN(CCOC(=O)Cc2c(C)n(C(=O)c3ccc(Cl)cc3)c3ccc(OC)cc23)CC1)NC(=O)c1ccccc1 (stereo not shown) [Proglumetacin] | 0.365
42 | O=C(OC1CCCCC1)c1ccccc1C(=O)OC1CCCCC1 [Dicyclohexyl phthalate] | 23.1
43 | CCCCCCCCCCCCCCCCCCNC(=O)OC1CCN(C(=O)OC[C@H](COC(=O)N(Cc2cccc[n+]2CC)C(=O)c2ccccc2OC)OC)CC1 [Minopafant] | 19
44 | CCN(CC)CCOC(=O)C(O)(c1ccccc1)c1ccccc1 [Benactyzine] | 11.5
45 | CN1CCc2cc(Cl)c(O)cc2[C@H]2c3ccccc3CC[C@@H]21 [Ecopipam] | 10.3
46 | CC(C)CC(C)Nc1ccc(Nc2ccccc2)cc1 (stereo not shown) [6PPD] | 29
47 | CCOCCn1c(N2CCCN(C)CC2)nc2ccccc21 [Emedastine difumarate] | 6.24
48 | C[C@H]1CCC[C@H](O)CCCCCc2cc(O)cc(O)c2C(=O)O1 [Zearalanol] | 55.4
49 | ClC(Cl)=C(c1ccc(Cl)cc1)c1ccc(Cl)cc1 [p,p'-DDE] | 27.5
50 | CCC(Cc1ccccc1)(C(=O)c1ccc(N2CCOCC2)cc1)N(C)C (stereo not shown) [2-Benzyl-2-(dimethylamino)-1-[4-(morpholin-4-yl)phenyl]butan-1-one] | 19.5
51 | NC(=O)C1(N2CCCCC2)CCN(CCCC(=O)c2ccc(F)cc2)CC1 [Pipamperone dihydrochloride] | 20.1
52 | C[C@@H]1CC[C@@]2(OC1)O[C@H]1[C@@H](O)[C@H]3[C@@H]4CC[C@H]5C[C@@H](O[C@@H]6O[C@H](CO)[C@H](O[C@@H]7O[C@H](CO)[C@@H](O)[C@H](O[C@@H]8OC[C@@H](O)[C@H](O)[C@H]8O)[C@H]7O[C@@H]7O[C@H](CO)[C@@H](O)[C@H](O[C@@H]8O[C@H](CO)[C@@H](O)[C@H](O)[C@H]8O)[C@H]7O)[C@H](O)[C@H]6O)[C@H](O)C[C@]5(C)[C@H]4CC[C@]3(C)[C@H]1[C@@H]2C [Digitonin] | 8.9
53 | COc1cc(C(C)=O)ccc1OCCCN1CCC(c2noc3cc(F)ccc23)CC1 [Iloperidone] | 1.4
54 | O=C(Oc1ccccc1)c1ccc2ccccc2c1O [Phenyl 1-hydroxy-2-naphthoate] | 49
55 | O=C(c1ccc(F)cc1)C1CCN(CCn2c(=S)[nH]c3ccccc3c2=O)CC1 [Altanserin hydrochloride] | 0.817
